Reference: patent US10851089B2, “Matrix metalloproteinase (MMP) inhibitors and methods of use thereof” (Foresee Pharmaceuticals Co., Ltd., priority 2018, dated 2020)
Read-outs that look alike come from different tables or passages of the source.

Assays:
Format in all cases: biochemical
recombinant human MMP-14 = recombinant human MMP-14 (Homo sapiens (Human), UniProt P50281); assay: MMP selectivity assay MMP-14
Method: (§1) The inhibitory effect of compounds on the rate of cleaving fluorogenic MMP substrate (Enzo, BML-P128) by recombinant human MMP-12 catalytic domain (Enzo, BML-SE138) was carried out by methods known in the art. Briefly, to each well of a 96-well black opaque plate, all the reagents were sequentially added by pipetting, and the final reaction contained 4 nM of recombinant human MMP-12 catalytic domain, 4 μM of fluorogenic MMP substrate, and various concentrations (0.15 nM to 10,000 nM) of tested compound dilutions in HEPES buffer (pH 7.5) containing 10 mM of CaCl2, 0.01% Brij® 35 (polyoxyethylene (23) lauryl ether), and 0.1 mg/ml of BSA.
(§2) The enzyme and compounds were pre-incubated on a shaker to mix in wells. After an hour of mixing, fluorogenic substrate was added to each well. Reaction without enzyme was used as a blank control in the plate. The plate was then fed into a plate reader to measure fluorescence intensity at Excitation/Emission wavelengths of 340 nm/440 nm every 10 mins for at least 1 hour at 37° C. The IC50 of each compound in MMP-12 inhibition was determined by using a readout obtained at time point 30 minutes.
(§3) The MMP selectivity assay was performed by using other recombinant human MMPs, including MMP-1, MMP-2, MMP-3, MMP-7, MMP-8, MMP-9, MMP-10, MMP-13, and MMP-14. The IC50 of the compounds for the other recombinant human MMPs was determined as described above in Example 1, and are shown in Table 2.

recombinant human MMP-3 = recombinant human MMP-3 (Homo sapiens (Human), UniProt P08254); assay: MMP selectivity assay MMP-3
Method: as §1, §2, §3

[1] = target: recombinant human MMP-12 catalytic domain (Homo sapiens (Human), UniProt P39900); assay: MMP-12 inhibitory assay (fluorogenic substrate cleavage)
Method: as §1, §2

recombinant human MMP-1 = recombinant human MMP-1 (Homo sapiens (Human), UniProt P03956); assay: MMP selectivity assay MMP-1
Method: as §1, §2, §3

recombinant human MMP-9 = recombinant human MMP-9 (Homo sapiens (Human), UniProt P14780); assay: MMP selectivity assay MMP-9
Method: as §1, §2, §3

recombinant human MMP-7 = recombinant human MMP-7 (Homo sapiens (Human), UniProt P09237); assay: MMP selectivity assay MMP-7
Method: as §1, §2, §3

Chain of recombinant human MMP-12 catalytic domain (P39900 106-263): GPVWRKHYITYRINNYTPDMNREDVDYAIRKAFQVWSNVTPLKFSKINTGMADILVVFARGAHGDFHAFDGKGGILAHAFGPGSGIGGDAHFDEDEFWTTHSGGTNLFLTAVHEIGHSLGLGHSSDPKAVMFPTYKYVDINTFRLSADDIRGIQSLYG
Chain of recombinant human MMP-1 (P03956 100-469): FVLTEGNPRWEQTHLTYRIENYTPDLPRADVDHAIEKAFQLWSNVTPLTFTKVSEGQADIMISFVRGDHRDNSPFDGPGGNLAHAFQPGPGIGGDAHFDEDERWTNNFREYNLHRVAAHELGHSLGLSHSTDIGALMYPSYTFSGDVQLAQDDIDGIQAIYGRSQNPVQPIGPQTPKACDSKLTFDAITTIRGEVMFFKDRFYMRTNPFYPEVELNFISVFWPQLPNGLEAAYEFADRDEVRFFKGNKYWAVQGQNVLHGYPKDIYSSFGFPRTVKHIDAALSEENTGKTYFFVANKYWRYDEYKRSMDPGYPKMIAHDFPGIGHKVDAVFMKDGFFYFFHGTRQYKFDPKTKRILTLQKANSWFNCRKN
Chain of recombinant human MMP-3 (P08254 100-477): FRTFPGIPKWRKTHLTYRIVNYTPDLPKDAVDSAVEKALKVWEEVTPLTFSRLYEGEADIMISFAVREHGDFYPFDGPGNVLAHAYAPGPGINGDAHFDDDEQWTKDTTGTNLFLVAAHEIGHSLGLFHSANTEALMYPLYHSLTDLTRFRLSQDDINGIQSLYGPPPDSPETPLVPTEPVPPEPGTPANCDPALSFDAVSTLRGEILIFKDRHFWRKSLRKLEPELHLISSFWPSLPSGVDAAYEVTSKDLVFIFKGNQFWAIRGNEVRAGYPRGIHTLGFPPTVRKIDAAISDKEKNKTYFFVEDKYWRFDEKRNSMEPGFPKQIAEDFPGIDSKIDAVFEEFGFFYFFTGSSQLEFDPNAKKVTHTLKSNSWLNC
Chain of recombinant human MMP-9 (P14780 94-707): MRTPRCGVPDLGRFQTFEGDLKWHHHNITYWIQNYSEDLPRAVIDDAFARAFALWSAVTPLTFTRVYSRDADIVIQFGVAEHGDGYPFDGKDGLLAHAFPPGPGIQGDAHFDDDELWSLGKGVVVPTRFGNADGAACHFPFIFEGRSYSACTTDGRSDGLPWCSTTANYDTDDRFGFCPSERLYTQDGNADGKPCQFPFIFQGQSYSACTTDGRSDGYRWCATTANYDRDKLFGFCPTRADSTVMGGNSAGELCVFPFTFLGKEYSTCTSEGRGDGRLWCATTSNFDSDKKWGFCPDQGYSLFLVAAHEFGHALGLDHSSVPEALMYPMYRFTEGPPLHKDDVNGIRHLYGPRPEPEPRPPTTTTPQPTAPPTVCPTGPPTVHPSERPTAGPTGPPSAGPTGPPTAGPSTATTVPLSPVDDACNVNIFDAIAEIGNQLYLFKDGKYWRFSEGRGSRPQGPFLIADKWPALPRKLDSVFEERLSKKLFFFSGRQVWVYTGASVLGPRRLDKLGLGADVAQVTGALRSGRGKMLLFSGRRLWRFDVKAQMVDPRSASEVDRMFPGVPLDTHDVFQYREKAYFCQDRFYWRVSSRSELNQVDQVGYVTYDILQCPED
Chain of recombinant human MMP-7 (P09237 95-267): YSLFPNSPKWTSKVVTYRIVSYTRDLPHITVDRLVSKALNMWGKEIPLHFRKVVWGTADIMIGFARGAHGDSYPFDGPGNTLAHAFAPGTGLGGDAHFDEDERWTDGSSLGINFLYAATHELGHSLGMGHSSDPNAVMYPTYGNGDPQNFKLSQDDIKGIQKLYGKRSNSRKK

Q: For `Cc1cc(COc2ccc(Sc3ccoc3C3NC(=O)NC3=O)cc2)ccn1` (stereo not shown) [FC-4], which IC50 (recombinant human MMP-14) is on record?
A: The IC50 was 1000 to 10000 nM.

Q: What about the IC50 (recombinant human MMP-3) of the same compound?
A: Its IC50 is 100 to 1000 nM.

Q: And the IC50 ([1]; Table 2 selectivity profile, read-out: MMP-12 activity (IC50))?
A: Its IC50 is under 10 nM.

Q: And the IC50 ([1]; readout at 30 minutes, read-out: MMP-12 IC50)?
A: Its IC50 is under 10 nM.

Q: What about the IC50 (recombinant human MMP-1) of the same compound?
A: The IC50 was over 10000 nM.

Q: And the IC50 (recombinant human MMP-9)?
A: The IC50 was 100 to 1000 nM.

Q: And the IC50 (recombinant human MMP-7)?
A: Its IC50 is over 10000 nM.
